Assay results taken from patent US20120129875A1, “SUBSTITUTED QUINAZOLINES AS FUNGICIDES” (SYNGENTA CROP PROTECTION, LLC, priority 2009, published 2012).

Experiments:
Type in all cases: in vivo
Alternaria solani = Alternaria solani / tomato / preventative (Alternaria on tomato); conditions: tomato plants cv. Roter Gnom, inoculated two days after application, vs untreated control, read-out: disease control
Procedure: (§1) Alternaria solani/Tomato/Preventative (Alternaria on Tomato) 4-week old tomato plants cv. Roter Gnom are treated with the formulated test compound in a spray chamber. The test plants are inoculated by spraying them with a spore suspension two days after application. The inoculated test plants are incubated at 22/18° C. (day/night) and 95% rh in a greenhouse and the percentage leaf area covered by disease is assessed when an appropriate level of disease appears on untreated check plants (5-7 days after application).

[1] = test system: Botryotinia fuckeliana (Botrytis cinerea); assay: Botryotinia fuckeliana (Botrytis cinerea) / tomato / preventative (Botrytis on tomato); conditions: tomato plants cv. Roter Gnom, inoculated two days after application, vs untreated control, read-out: disease control
Procedure: as §1, with “Botryotinia fuckeliana (Botrytis cinerea)/Tomato/Preventative (Botrytis” for “Alternaria solani/Tomato/Preventative (Alternaria”, “20°” for “22/18°”, “C.” for “C. (day/night)”, “(5-6” for “(5-7”

[2] = test system: Erysiphe necator (Uncinula necator); assay: Erysiphe necator (Uncinula necator) / grape / preventative (powdery mildew on grape); conditions: grape seedlings cv. Gutedel, inoculated 1 day after application, vs untreated control, read-out: disease control
Procedure: Erysiphe necator (Uncinula necator)/Grape/Preventative (Powdery Mildew on Grape) 5-week old grape seedlings cv. Gutedel are treated with the formulated test compound in a spray chamber. The test plants are inoculated by shaking plants infected with grape powdery mildew above them 1 day after application. The inoculated test plants are incubated at 24/22° C. (day/night) and 70% rh under a light regime of 14/10 h (light/dark) and the percentage leaf area covered by disease is assessed when an appropriate level of disease appears on untreated check plants (7-9 days after application).

[3] = test system: Mycosphaerella arachidis (Cercospora arachidicola); assay: Mycosphaerella arachidis (Cercospora arachidicola) / peanut / preventative; conditions: peanut plants cv. Georgia Green, inoculated one day after application, vs untreated control, read-out: disease control
Procedure: Mycosphaerella arachidis (Cercospora arachidicola)/Peanut/Preventative 3-week old peanut plants cv. Georgia Green are treated with the formulated test compound in a spray chamber. The test plants are inoculated by spraying them with a spore suspension on their lower leaf surface one day after application. After an incubation period of 4 days under a plastic hood at 23° C. and 100% rh, the test plants are kept at 23° C./20° C. (day/night) and 70% rh in a greenhouse. The percentage leaf area covered by disease is assessed when an appropriate level of disease appears on untreated check plants (12-14 days after application).

[4] = test system: Mycosphaerella graminicola (Septoria tritici); assay: Mycosphaerella graminicola (Septoria tritici) / wheat / preventative (Septoria tritici leaf spot on wheat); conditions: Zymoseptoria tritici, wheat plants cv. Riband, inoculated one day after application, vs untreated control, read-out: disease control
Procedure: Mycosphaerella graminicola (Septoria tritici)/Wheat/Preventative (Septoria tritici Leaf Spot on Wheat) 2-week old wheat plants cv. Riband are treated with the formulated test compound in a spray chamber. The test plants are inoculated by spraying a spore suspension on them one day after application. After an incubation period of 1 day at 22° C./21° C. (day/night) and 95% rh, the test plants are kept at 22° C./21° C. (day/night) and 70% rh in a greenhouse. The percentage leaf area covered by disease is assessed when an appropriate level of disease appears on untreated check plants (16-19 days after application).

Phytophthora infestans = assay: whole plant or invertebrate; conditions: in Solanum tuberosum, read-out: disease control
Plasmopara viticola = Plasmopara viticola / grape / preventative (grape downy mildew); conditions: grape seedlings cv. Gutedel, inoculated one day after application, vs untreated control, read-out: disease control
Procedure: Plasmopara viticola/Grape/Preventative (Grape Downy Mildew)
5-week old grape seedlings cv. Gutedel are treated with the formulated test compound in a spray chamber. The test plants are inoculated by spraying a sporangia suspension on their lower leaf surface one day after application. The inoculated test plants are incubated at 22° C. and 100% rh in a greenhouse and the percentage leaf area covered by disease is assessed when an appropriate level of disease appears on untreated check plants (6-8 days after application).

[5] = test system: Pyrenophora teres (Helminthosporium teres); assay: Pyrenophora teres (Helminthosporium teres) / barley / preventative (net blotch on barley); conditions: barley plants cv. Regina, inoculated 2 days after application, vs untreated control, read-out: disease control
Procedure: Pyrenophora teres (Helminthosporium teres)/Barley/Preventative (Net Blotch on Barley) 1-week old barley plants cv. Regina are treated with the formulated test compound in a spray chamber. The test plants are inoculated by spraying them with a spore suspension 2 days after application. The inoculated test plants are incubated at 20° C. and 95% rh and the percentage leaf area covered by disease is assessed when an appropriate level of disease appears on untreated check plants (5-7 days after application).

[6] = test system: Phaeosphaeria nodorum (Septoria nodorum); assay: Phaeosphaeria nodorum (Septoria nodorum) / wheat / leaf disc preventative (glume blotch); conditions: Parastagonospora nodorum, foliar, wheat leaf segments cv. Kanzler on agar, inoculated 2 days after application, vs untreated control, read-out: disease control
How it was run: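 Wheat cv. Kanzler leaf segments on agar sprayed with formulated compound in water, inoculated with spore suspension 2 days later. Incubated at 20° C., 75% rh, 12 h light/12 h dark; percent disease control versus untreated scored when untreated discs show damage (5-7 days after application).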

Measured: pest or weed control at 200 ppm

Cc1ccc(-c2ncc3ccccc3n2)nc1-c1cc(F)cc(F)c1 [3/90]
not listed: [6]
≥ 80%: all other assays above

Clc1cccc(Cc2cccc(-c3ncc4ccccc4n3)n2)c1 [6/11]
not listed: Phytophthora infestans | Plasmopara viticola | [6]
≥ 80%: all other assays above

Cc1ccc(-c2ncc3ccccc3n2)nc1Oc1ccccc1 [5/18]
≥ 80%: Alternaria solani | [1] | Phytophthora infestans | Plasmopara viticola | [5]

COc1ccc(-c2nc(-c3ncc4ccccc4n3)ccc2C)cc1F [3/92, 2-[6-(3-fluoro-4-methoxy-phenyl)-5-methylpyridin-2-yl]-quinazoline]
not listed: [6]
≥ 80%: all other assays above

Cc1ccc(-c2ncc3ccccc3n2)nc1Cc1ccccc1 [7/17]
≥ 80%: Alternaria solani | [3] | [4] | Phytophthora infestans

Cc1ccc(-c2ncc3ccccc3n2)nc1-c1ccc(F)cc1 [3/72]
≥ 80%: Alternaria solani | [1] | Phytophthora infestans | Plasmopara viticola | [5]

Cc1ccc(-c2ncc3ccccc3n2)nc1-c1ccccc1 [3/71]
not listed: [2] | [3] | [6]
≥ 80%: all other assays above

Cc1ccccc1-c1nc(-c2ncc3ccccc3n2)ccc1C [3/76]
not listed: [2] | [6]
≥ 80%: all other assays above

Cc1ccc(-c2ncc3ccccc3n2)nc1-c1ccc(F)c(F)c1 [3/89]
not listed: Phytophthora infestans | [6]
≥ 80%: all other assays above

Cc1cc(F)ccc1-c1cccc(-c2ncc3ccccc3n2)n1 [2/55]
not listed: [4] | [6]
≥ 80%: all other assays above

Cc1cccc(-c2nc(-c3ncc4ccccc4n3)ccc2C)c1 [3/75]
not listed: [5] | [6]
≥ 80%: all other assays above

Cc1cc(-c2nc(-c3ncc4ccccc4n3)ccc2C)ccc1F [3/85]
not listed: [6]
≥ 80%: all other assays above

c1ccc(Cc2cccc(-c3ncc4ccccc4n3)n2)cc1 [6/17, 2-(6-benzylpyridin-2-yl)-quinazoline]
not listed: [4] | [6]
≥ 80%: all other assays above

Cc1ccc(-c2ncc3ccccc3n2)nc1-c1cccc(F)c1 [3/77]
≥ 80%: Alternaria solani | [4] | Phytophthora infestans | Plasmopara viticola

COc1cccc(-c2cccc(-c3ncc4ccccc4n3)n2)c1F [2/60]
≥ 80%: Alternaria solani | [1] | Phytophthora infestans | Plasmopara viticola | [6]
